One data set concerns the target L-type calcium channel (Mus musculus, UniProt Q01815+Q02789+Q99246+Q9JIS7). The data set is described as follows: Inhibition of L-type Ca2+ channel in mouse cardiomyocytes at holding potential of -80 or -40 mV by whole cell patch clamp assay. The format is cell-based. Background: In patch-clamp work, channel activity is measured electrically.
Data set [1] addresses T1, hERG (KCNH2) (Homo sapiens, UniProt Q12809). Briefly: Inhibition of human ERG expressed in HEK293 cells at 0.1 uM after 5 mins at -80 mV holding potential by patch clamp assay. It counts as cell-based. The conditions noted are these: HEK293 cells expressing human ERG.
The target in data set [2] is T1, hERG (KCNH2). Briefly: Inhibition of human ERG expressed in HEK293 cells at 0.01 uM after 5 mins at -80 mV holding potential by patch clamp assay. The conditions noted are these: HEK293 cells expressing human ERG. It counts as cell-based.
The target of data set [3] is T1, hERG (KCNH2). Briefly: Inhibition of human ERG expressed in HEK293 cells at 10 uM after 5 mins at -80 mV holding potential by patch clamp assay. The format is cell-based. The conditions noted are these: HEK293 cells expressing human ERG.
The target of data set [4] is T1, hERG (KCNH2). Briefly: Inhibition of human ERG expressed in HEK293 cells at 1 uM after 5 mins at -80 mV holding potential by patch clamp assay. It counts as cell-based. The conditions noted are these: HEK293 cells expressing human ERG.
For data set [5], the target named is T2, Ryanodine receptor 2 (Homo sapiens, UniProt Q92736). The data set is described as follows: Induction of FKBP12.6 re-binding to PKA-phosphorylated-RyR2 (unknown origin) after 30 mins in presence of [35S]-FKBP12.6 by liquid scintillation counting.
T2 sequence (Q92736 whole entry): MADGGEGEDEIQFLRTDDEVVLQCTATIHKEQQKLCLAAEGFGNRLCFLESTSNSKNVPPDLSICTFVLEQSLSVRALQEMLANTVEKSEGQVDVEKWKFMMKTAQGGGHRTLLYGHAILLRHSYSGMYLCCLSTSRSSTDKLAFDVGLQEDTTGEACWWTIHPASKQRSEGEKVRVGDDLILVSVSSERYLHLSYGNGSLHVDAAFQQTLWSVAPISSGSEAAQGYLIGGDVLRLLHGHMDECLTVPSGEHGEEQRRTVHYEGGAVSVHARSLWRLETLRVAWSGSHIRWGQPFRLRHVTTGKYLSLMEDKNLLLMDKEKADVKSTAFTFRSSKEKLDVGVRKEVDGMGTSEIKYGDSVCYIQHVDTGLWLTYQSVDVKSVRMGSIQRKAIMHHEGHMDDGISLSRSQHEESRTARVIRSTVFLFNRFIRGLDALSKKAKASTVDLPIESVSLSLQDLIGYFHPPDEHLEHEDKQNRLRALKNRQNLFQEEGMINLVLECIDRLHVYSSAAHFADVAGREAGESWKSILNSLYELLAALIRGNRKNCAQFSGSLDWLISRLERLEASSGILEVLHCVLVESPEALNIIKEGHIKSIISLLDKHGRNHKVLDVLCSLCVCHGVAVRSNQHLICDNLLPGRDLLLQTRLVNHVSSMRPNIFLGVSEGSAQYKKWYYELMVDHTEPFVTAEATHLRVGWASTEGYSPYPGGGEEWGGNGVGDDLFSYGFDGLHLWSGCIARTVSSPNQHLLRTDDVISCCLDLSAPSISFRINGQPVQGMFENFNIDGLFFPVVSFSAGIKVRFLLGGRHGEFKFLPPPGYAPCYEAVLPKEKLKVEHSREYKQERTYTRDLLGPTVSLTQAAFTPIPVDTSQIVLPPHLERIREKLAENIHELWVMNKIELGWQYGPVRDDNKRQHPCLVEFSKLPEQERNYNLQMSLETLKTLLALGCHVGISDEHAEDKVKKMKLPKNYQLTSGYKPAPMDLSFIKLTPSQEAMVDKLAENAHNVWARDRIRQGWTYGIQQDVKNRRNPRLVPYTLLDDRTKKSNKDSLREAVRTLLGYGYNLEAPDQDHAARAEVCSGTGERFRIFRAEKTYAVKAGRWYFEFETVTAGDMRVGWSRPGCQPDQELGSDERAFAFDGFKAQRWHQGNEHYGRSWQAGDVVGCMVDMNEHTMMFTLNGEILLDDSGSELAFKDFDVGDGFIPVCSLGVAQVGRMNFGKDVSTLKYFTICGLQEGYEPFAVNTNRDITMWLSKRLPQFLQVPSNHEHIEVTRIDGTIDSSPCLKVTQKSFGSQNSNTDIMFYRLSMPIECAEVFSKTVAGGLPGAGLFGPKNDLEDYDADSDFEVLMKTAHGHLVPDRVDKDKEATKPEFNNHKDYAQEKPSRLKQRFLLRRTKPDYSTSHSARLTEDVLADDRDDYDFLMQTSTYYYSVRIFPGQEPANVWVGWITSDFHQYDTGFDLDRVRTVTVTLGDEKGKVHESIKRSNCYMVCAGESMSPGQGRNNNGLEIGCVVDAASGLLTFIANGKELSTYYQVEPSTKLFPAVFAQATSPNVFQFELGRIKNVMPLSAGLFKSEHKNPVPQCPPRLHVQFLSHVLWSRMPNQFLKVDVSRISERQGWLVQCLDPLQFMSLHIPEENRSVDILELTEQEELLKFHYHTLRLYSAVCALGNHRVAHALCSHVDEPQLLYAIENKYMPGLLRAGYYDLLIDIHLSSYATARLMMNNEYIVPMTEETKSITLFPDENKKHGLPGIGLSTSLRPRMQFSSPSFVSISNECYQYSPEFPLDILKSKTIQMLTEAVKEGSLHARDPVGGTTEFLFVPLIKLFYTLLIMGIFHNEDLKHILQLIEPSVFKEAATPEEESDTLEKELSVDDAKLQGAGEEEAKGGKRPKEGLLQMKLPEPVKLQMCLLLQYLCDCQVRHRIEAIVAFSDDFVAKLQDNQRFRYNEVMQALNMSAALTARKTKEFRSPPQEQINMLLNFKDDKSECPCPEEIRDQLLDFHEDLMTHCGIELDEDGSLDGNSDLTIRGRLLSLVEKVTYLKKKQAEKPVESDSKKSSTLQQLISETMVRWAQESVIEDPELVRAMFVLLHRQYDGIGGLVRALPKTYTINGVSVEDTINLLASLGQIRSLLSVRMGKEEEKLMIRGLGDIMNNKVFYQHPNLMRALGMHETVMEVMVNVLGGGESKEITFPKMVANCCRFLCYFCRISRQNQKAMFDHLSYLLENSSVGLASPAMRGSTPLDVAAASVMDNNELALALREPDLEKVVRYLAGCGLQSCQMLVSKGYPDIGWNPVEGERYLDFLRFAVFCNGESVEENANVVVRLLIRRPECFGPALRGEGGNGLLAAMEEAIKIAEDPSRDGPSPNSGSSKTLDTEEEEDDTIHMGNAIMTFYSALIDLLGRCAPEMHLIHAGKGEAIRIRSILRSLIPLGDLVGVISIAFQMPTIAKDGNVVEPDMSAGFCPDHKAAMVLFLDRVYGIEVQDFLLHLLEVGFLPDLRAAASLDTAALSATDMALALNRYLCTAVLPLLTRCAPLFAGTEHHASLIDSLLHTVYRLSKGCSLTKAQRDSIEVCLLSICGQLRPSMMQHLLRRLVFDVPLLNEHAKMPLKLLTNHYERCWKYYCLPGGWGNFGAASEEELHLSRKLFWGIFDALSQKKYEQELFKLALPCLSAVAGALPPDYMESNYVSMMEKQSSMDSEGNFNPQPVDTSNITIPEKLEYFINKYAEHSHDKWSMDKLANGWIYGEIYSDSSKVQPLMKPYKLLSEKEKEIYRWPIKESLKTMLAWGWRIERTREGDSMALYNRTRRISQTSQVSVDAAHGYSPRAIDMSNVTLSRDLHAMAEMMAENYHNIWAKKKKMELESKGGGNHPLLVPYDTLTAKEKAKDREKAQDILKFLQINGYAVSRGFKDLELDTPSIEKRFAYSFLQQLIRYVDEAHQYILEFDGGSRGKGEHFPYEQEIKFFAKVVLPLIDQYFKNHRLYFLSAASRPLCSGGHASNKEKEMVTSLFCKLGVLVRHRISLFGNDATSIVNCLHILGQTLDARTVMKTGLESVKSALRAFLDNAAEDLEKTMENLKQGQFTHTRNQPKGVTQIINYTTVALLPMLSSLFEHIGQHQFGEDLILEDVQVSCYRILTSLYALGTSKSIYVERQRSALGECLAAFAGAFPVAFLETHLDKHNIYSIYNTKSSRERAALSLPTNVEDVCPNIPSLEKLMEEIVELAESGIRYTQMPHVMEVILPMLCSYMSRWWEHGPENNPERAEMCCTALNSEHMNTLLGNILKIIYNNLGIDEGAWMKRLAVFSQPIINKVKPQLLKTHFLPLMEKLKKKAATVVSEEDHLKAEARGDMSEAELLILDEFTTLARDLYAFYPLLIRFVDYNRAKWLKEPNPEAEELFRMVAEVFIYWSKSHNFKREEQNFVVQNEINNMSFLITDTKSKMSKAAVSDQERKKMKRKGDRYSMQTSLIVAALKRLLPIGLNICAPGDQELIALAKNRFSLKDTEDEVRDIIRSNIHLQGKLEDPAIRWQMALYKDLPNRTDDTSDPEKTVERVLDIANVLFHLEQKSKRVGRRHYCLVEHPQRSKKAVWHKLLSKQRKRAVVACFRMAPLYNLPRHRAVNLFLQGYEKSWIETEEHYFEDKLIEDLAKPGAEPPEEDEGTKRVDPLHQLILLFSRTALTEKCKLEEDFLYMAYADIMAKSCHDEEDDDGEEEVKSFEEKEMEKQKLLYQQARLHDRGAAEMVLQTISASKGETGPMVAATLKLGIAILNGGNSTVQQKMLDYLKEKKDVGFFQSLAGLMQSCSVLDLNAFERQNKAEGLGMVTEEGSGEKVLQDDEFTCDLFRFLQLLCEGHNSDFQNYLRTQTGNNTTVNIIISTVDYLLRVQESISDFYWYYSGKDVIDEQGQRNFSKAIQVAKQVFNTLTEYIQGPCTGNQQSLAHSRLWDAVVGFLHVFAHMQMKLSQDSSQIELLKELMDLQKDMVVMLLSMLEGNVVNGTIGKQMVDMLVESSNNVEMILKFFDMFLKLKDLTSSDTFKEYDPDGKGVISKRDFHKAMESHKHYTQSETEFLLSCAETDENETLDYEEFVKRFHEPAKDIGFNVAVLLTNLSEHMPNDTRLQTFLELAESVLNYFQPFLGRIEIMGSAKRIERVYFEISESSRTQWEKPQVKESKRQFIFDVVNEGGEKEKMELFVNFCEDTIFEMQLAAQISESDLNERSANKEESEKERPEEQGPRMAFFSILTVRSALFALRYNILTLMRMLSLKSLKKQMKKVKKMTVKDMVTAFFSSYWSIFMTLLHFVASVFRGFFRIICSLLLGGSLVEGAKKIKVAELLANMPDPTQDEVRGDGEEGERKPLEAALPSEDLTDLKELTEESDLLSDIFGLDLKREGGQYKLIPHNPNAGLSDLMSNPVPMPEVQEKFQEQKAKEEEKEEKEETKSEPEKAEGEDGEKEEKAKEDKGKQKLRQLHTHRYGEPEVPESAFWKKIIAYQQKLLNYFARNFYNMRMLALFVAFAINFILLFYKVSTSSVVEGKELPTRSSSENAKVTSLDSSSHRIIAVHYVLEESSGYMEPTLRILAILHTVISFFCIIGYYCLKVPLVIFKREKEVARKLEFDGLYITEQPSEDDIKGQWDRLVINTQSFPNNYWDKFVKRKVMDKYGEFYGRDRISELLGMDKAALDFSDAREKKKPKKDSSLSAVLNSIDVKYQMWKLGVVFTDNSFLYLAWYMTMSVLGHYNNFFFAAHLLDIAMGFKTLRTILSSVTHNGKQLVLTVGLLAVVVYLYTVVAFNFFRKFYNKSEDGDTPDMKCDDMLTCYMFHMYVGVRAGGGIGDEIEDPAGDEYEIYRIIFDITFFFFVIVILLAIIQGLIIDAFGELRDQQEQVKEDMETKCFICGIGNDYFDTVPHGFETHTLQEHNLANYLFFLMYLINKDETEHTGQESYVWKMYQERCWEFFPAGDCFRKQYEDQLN
The species named for data set [6] is Mus musculus. The data set is described as follows: Antiarrhythmic activity in haploinsufficient FKBP12.6 expressing mouse assessed as reduction in sustained ventricular tachycardia at 0.2 to 1 uM under testing exercise followed by epinephrine injection relative to control. It counts as functional.
The target of data set [7] is T2, Ryanodine receptor 2. The data set is described as follows: Induction of normalization of single channel closed state of wild type PKA phosphorylated RyR2 (unknown origin) assessed as channel open probability at 0.1 umol/L relative to control.
Data set [8] is filed under the species Mus musculus. The data set is described as follows: Induction of cardiac function improvement in myocardial infarction-induced acute heart failure mouse model subjected to permanent ligation of left anterior descending coronary artery assessed as increase in cardiac contractility at plasma concentration 200 nM after 7 days post myocardial infarction. The format is functional.

In data set [9] the target is T2, Ryanodine receptor 2. The data set is described as follows: Induction of FKBP12.6 re-binding to PKA-phosphorylated-RyR2 (unknown origin) at 10 to 1000 nM after 30 mins in presence of [35S]-FKBP12.6 by liquid scintillation counting.
Data set [10] is filed under the species Mus musculus. Briefly: Induction of cardiac function improvement in myocardial infarction-induced acute heart failure mouse model subjected to permanent ligation of left anterior descending coronary artery assessed as increase in fractional shortening at plasma concentration of 100 to 200 nM after 2 weeks post myocardial infarction by echocardiography. It counts as functional.

The target of data set [11] is T2, Ryanodine receptor 2. Briefly: Induction of normalization of single channel closed state of PKA phosphorylated RyR2 P2328S mutant (unknown origin) assessed as channel open probability level at 0.1 umol/L (reference value: 14.4%).
Data set [12] concerns the target T2, Ryanodine receptor 2. Briefly: Induction of calstabin-2 binding to RyR2 P2328S mutant (unknown origin) at 0.1 umol/L.
The species entered for data set [13] is Mus musculus. The data set is described as follows: Induction of cardiac function improvement in myocardial infarction-induced acute heart failure mouse model at plasma concentration 200 nM after 7 days post myocardial infarction. It counts as functional.
The subject of data set [14] is Mus musculus. The data set is described as follows: Antiarrhythmic activity in haploinsufficient FKBP12.6 expressing mouse assessed as plasma concentration showing prevention of sudden cardiac death dosed via osmotic mini-pump under testing exercise followed by epinephrine injection relative to control. It counts as functional, organism-based.
Data set [15] concerns Mus musculus. Briefly: Antiarrhythmic activity in haploinsufficient FKBP12.6 expressing mouse assessed as plasma concentration showing prevention of cardiac arrhythmias dosed via osmotic mini-pump under testing exercise followed by epinephrine injection relative to control. It counts as functional, organism-based.
Data set [16] in a line: Cardiotoxicity in haploinsufficient FKBP12.6 expressing mouse assessed as reduction in non-sustained ventricular tachycardia at 0.2 to 1 uM under testing exercise followed by epinephrine injection relative to control. The format is toxicity. The conditions noted are these: in vivo.

pEC50: −log10 of the molar value. Calls of active or inactive are those of the source. No cut-off for these calls is given here.

A word on the inhibition: it is the share of the control response that was lost under treatment. The low end stands for a response near the control, the high end for a response far below the control. A word on the pEC50: it is the negative decadic logarithm of the EC50, by convention in mol/L.

Regarding `COC(=O)C1=C(C)NC(C)=C(C(=O)OC)C1c1ccccc1[N+](=O)[O-]` [NIFEDIPINE], at L-type calcium channel, the “inhibition (INH)” value is “Active”.

As for `COC(=O)C(=O)N1CCSc2ccc(OC)cc2C1`, the inhibition at 5 min, 0.1 µM against hERG (KCNH2) [1] was found to be 7.3%. Also, the inhibition at 5 min, 0.01 µM against hERG (KCNH2) [2] was 0.2%. In addition, the inhibition at 5 min, 10 µM at hERG (KCNH2) [3] amounted to 13.6%. The same compound showed an inhibition at 5 min, 1 µM against hERG (KCNH2) [4] of 2.7%.

On hERG (KCNH2) [1], `O=C(N1CCCCC1)N1CCSc2ccccc2C1` came in with an inhibition at 5 min, 0.1 µM of 4.2%. The compound also returned an inhibition at 5 min, 0.01 µM against hERG (KCNH2) [2] of 2.5%. This compound gave an inhibition at 5 min, 10 µM at hERG (KCNH2) [3] of 47.3%. For the same compound, the inhibition at 5 min, 1 µM at hERG (KCNH2) [4] was 5.7%.

As to `c1ccc2c(c1)CNCCS2`, the pEC50 on Ryanodine receptor 2 [5] is 7.00.

`C=CC(=O)N1CCSc2ccc(OC)cc2C1`: the pEC50 at Ryanodine receptor 2 [5] was 7.30.

With `COc1ccc2c(c1)CN(C(=O)N1CCN(Cc3ccc4c(c3)OCO4)CC1)CCS2`, the inhibition at 5 min, 0.1 µM against hERG (KCNH2) [1] was 9.7%. This compound registered an inhibition at 5 min, 0.01 µM against hERG (KCNH2) [2] of 2.7%. The compound further had an inhibition at 5 min, 10 µM on hERG (KCNH2) [3] of 78%. At hERG (KCNH2) [4], the inhibition at 5 min, 1 µM came to 29.6%.

Turning to `COc1ccc2c(c1)CN([P@](=O)(OC)c1ccccc1)CCS2`, at Ryanodine receptor 2 [5], the pEC50 is 6.74.

On to `COc1ccc2c(c1)CN(C(=O)C(=O)O)CCS2`, for which the outcome in the data set listed under Mus musculus [6], at Ryanodine receptor 2 [7], in the data set filed under Mus musculus [8], on Ryanodine receptor 2 [9], in the data set listed under Mus musculus [10] and on Ryanodine receptor 2 [12] was Active. Moreover, in the data set filed under Mus musculus [13], the outcome was Active. Further, the Activity at Ryanodine receptor 2 [11] came to 0.3%. In addition, the Cp in the data set with Mus musculus [14] and in the data set on Mus musculus [15] was 0.02 to 1 µM throughout.

Regarding `COc1ccc2c(c1)CN(C(=O)C(=O)O)CCS2(=O)=O`, the inhibition at 5 min, 0.1 µM against hERG (KCNH2) [1] worked out at 2.5%. The inhibition at 5 min, 0.01 µM on hERG (KCNH2) [2] worked out at 1.6%. This compound also gave an inhibition at 5 min, 10 µM against hERG (KCNH2) [3] of 7.4%. Besides, the inhibition at 5 min, 1 µM at hERG (KCNH2) [4] is 4.6%.

For the compound `COc1ccc2c(c1)CN(C(=O)C(=O)O)CCS2` [ALADORIAN], the Activity result in data set [16] is “Non-Toxic”.

For the origin of these results see ChEMBL document CHEMBL3880390, “Agents for preventing and treating disorders involving modulation of the RYR receptors” (2014).
